Results: ChEMBL document CHEMBL5113511, “Discovery of Small-Molecule Degraders of the CDK9-Cyclin T1 Complex for Targeting Transcriptional Addiction in Prostate Cancer” (J Med Chem, 2022)
Activity calls are given as the source filed them.

Legend:
Cyclin-T2 (Homo sapiens) = Cyclin-T2 (Homo sapiens) (UniProt O60583); test: Induction of HyT-mediated degradation of cyclin T2 in human 22Rv1 cells assessed as reduction in cyclin T2 level at 3 to 6 uM incubated for 24 hrs by immunoblot analysis; format: cell-based; conditions: dose 3-6 µM
[1] = biological target: Cyclin-dependent kinase 9 (Homo sapiens, UniProt P50750); test: Induction of Hyt-mediated degradation of CDK9 in human 22Rv1 cells assessed as downregulation of CDK9 level at 2 uM incubated for 24 hrs by DIA-based proteomics analysis; format: cell-based
Cyclin-T1 [2] = biological target: T1, Cyclin-T1 (Homo sapiens, UniProt O60563); test: Induction of HA-tagged Cyclin T1 (unknown origin) polyubiquitination expressed in HEK293T cells co-transfected with Flag-tagged CDK9 and Myc ubiquitin assessed as increase in K48-linkage poly-ubiqutinated Cyclin T1 level at 1 to 2 uM incubated for 20 hrs by western blot analysis; format: cell-based; conditions: dose 1-2 µM
Cyclin-T1 [3] = biological target: T1, Cyclin-T1; test: Induction of HyT-mediated degradation of Cyclin T1 in human 22Rv1 cells at 3 uM measured after 5 to 18 hrs by immunoblot analysis; format: cell-based; conditions: time 5-18 hrs
CWR22R = test: Downregulation of CDK1 level in human 22Rv1 cells at 3 uM measured after 12 hrs by DIA-based proteomics analysis; format: functional, cell-based
[4] = biological target: T2, CDK9/cyclin T1 (Homo sapiens) (UniProt O60563+P50750); test: Induction of CDK9/Cyclin T1 degradation in human 22Rv1 cells assessed as downregulation of AKR1C3 gene expression at 2 uM incubated for 24 hrs by RNA-Seq based analysis; format: cell-based
[5] = biological target: T2, CDK9/cyclin T1 (Homo sapiens); test: Induction of CDK9/Cyclin T1 degradation in human 22Rv1 cells assessed as downregulation of BTG1 gene expression at 2 uM incubated for 24 hrs by RNA-Seq based analysis; format: cell-based

T1 sequence (O60563 whole entry): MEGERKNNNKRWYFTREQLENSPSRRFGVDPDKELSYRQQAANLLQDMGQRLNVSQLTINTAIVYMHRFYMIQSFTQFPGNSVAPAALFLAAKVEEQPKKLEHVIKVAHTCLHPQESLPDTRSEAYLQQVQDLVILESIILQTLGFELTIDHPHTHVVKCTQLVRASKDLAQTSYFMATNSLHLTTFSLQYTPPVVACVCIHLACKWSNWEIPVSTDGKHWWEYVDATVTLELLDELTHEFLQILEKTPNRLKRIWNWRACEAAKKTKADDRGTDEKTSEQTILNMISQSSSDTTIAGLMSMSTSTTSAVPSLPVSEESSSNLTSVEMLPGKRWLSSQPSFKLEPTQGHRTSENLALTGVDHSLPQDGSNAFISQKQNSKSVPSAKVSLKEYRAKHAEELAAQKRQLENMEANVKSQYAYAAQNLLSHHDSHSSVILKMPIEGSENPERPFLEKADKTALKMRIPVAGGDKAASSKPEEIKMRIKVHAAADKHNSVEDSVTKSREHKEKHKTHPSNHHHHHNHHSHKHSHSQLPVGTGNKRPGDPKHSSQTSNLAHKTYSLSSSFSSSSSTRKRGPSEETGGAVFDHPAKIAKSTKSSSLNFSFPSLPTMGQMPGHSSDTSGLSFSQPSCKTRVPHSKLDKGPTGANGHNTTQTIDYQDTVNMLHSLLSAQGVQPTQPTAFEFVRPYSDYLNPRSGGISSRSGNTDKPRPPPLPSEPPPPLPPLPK
Chain of Cyclin-T2 (Homo sapiens) (O60583 whole entry): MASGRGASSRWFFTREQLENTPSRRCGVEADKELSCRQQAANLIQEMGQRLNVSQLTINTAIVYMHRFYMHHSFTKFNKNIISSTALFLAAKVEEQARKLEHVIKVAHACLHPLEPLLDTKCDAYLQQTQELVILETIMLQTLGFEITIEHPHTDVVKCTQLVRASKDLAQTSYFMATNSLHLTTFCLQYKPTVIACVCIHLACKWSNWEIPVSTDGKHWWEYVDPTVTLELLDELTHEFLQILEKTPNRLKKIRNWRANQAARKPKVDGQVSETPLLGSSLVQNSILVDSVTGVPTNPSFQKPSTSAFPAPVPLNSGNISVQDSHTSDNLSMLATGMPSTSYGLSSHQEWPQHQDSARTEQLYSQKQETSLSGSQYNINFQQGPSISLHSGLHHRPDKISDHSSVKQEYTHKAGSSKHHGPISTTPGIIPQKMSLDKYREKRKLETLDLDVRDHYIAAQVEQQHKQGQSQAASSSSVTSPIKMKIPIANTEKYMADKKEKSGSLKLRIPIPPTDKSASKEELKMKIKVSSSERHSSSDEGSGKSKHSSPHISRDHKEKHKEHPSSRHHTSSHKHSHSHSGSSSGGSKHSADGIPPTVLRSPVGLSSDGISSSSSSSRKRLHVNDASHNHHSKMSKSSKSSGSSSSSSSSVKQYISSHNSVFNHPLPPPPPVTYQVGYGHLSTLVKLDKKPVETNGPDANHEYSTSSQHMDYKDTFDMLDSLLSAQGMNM
Chain of Cyclin-dependent kinase 9 (P50750 whole entry): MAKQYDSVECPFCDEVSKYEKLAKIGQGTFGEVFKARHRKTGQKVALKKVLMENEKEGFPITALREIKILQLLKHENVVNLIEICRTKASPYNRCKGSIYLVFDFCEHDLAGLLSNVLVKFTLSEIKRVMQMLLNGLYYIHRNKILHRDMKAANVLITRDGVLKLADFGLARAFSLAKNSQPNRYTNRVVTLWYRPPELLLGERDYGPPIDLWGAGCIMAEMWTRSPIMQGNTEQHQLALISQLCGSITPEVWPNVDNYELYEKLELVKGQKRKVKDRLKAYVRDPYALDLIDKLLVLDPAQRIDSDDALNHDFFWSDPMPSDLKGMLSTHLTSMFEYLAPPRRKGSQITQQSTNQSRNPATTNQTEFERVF

CC(C)[C@@H]1CC[C@@H](C)C[C@H]1OCC(=O)NCCS(=O)(=O)N1CCC(C(=O)Nc2ncc(SCc3ncc(C(C)(C)C)o3)s2)CC1
active: Activity (Cyclin-T2 (Homo sapiens)) | Activity [1] | Activity (Cyclin-T1 [2]) | Activity (Cyclin-T1 [3]) | inhibition (CWR22R) | Activity [4] | Activity [5]
